Experiment [1] concerns Gal4DBD fusions of CLOCK and MOP4 with VP16 fusions of nuclear receptors. In words: Mammalian two-hybrid analysis in CV-1 cells. The class given is cell-based, human. The settings on record: ligand 1 μM, FIG. 1B. How it is done:
NIH 3T3 cells were seeded at 20,000 cells/well in a 48-well dish and transfected by FuGENE™ liposome-mediated transfer (Roche Molecular Biochemicals, Indianapolis, Ind.) with internal control pRLSV40 (5 ng), pGL3M34 reporter, CMX-MOP4 (100 ng) or CMX-CLOCK (100 ng) and CMX-BMAL1 (100 ng) in the presence or absence of CMX-RXRα or CMX-RARα (25–100 ng). CMX-MOP4ΔAAA (100 ng), pCDNA3.1MOP4Δ727 (100 ng), pCDNA3.1MOP4Δ624 (100 ng), and CMX-MOP4Δ635–645 (100 ng) were used instead of CMXMOP4 where indicated. The amount of DNA in each transfection was kept constant by addition of empty pCDNA3 vector. […] Forty-eight hours post-transfection, cells were harvested to determine luciferase activity by luminometry (Dual-Luciferase® Reporter Assay System, Promega Corporation, Madison, Wis.). The procedure for mammalian two-hybrid analysis was identical except that CV-1 cells were used. MH100TK-LUC (100 ng) reporter, CMX-Gal4DBD-MOP4 (20 ng), CMX-Gal4DBD-CLOCK (20 ng) in the presence of, CMX-VP16-PPARγ (20 ng), CMX-VP16-RARα (20 ng), CMX-VP16-TRβ (20 ng), CMX-RXRα (20 ng) or CMX-VP16-PPARα (20 ng). […] For all the figures, each value is the mean of three independent experiments +/− standard error. Each experiment included six replicates from a single assay.

Experiment [2] relates to interaction between MOP4 and CLOCK with RXRα and RARα. The settings on record: YRG2 cells, ligand 1 μM, FIG. 1A. How it is done:
A liquid β-galactosidase activity assay was utilized to assess the effect of ligands on these novel interactions.
The library was prepared by ligating XhoI/EcoRI-adapted, phosphorylated, oligo-dT-primed cDNA, prepared from polyadenylated RNA extracted from 1×10^8 human aortic vascular smooth muscle cells (Cambrex Corporation, East Rutherford, N.J.), into the HybriZAP® II vector and packaged with Gigapack® III Gold packaging extract (Stratagene, La Jolla, Calif.) into a primary lambda library. […] RXRα-interacting clones were selected on media lacking tryptophan, leucine, and histidine, supplemented with 10 mM 3-amino-triazol.

For experiment [3], the target named is T1, CLOCK and RARα (Homo sapiens, UniProt P10276).
T1 construct: made in house; host or cells: coupled in vitro transcription-translation (labelled protein); E. coli BL21(DE3) (purified protein, inferred)
T1 sequence (P10276 1-462): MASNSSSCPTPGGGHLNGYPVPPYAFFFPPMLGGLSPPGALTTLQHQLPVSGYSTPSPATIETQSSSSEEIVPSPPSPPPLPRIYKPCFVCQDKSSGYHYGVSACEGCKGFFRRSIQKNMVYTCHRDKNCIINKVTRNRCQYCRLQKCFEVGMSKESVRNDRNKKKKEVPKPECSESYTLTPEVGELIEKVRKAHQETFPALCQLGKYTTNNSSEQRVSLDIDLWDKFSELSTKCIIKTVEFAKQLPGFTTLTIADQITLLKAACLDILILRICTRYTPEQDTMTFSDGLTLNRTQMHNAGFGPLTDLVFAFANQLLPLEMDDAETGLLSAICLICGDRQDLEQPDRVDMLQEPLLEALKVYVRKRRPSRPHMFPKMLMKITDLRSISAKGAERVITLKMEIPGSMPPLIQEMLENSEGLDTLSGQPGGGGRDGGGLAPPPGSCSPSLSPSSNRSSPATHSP
T1 sequence (O15516 1-846 partner): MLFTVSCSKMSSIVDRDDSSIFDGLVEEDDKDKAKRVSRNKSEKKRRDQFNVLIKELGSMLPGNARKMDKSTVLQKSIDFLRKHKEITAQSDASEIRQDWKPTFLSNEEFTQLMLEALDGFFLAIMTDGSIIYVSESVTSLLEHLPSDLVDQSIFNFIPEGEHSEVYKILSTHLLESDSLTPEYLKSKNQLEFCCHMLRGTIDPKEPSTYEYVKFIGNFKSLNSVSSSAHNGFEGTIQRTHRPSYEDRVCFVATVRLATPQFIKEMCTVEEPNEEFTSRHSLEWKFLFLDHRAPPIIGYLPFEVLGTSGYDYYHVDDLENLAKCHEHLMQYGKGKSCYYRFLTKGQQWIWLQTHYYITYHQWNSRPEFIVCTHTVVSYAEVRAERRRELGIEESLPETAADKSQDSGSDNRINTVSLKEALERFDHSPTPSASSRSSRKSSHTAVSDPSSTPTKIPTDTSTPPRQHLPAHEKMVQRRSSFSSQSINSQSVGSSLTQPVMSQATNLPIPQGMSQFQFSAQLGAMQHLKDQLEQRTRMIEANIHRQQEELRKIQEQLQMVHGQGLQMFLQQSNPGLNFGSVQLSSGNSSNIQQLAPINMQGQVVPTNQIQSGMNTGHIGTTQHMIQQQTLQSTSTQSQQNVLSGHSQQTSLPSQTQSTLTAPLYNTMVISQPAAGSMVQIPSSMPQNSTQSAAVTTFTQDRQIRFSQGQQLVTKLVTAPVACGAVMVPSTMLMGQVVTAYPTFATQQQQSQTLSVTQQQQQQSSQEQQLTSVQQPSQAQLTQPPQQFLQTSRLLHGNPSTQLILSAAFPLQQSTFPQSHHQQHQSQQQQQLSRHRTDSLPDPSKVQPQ
The experiment can be described thus: In vitro immunoprecipitation of CLOCK and RARα. It is filed as binding. The conditions noted are these: in vitro translated proteins, incubation in presence of retinoic acid.
Procedure: [^35S]Methionine-labeled RARα and CLOCK were incubated with purified CLOCK and RARα protein, respectively for 30 min. at room temperature in the presence or absence of tRA. The complex was immunoprecipitated using anti-CLOCK and anti-RAR antibodies (Santa Cruz Biotechnology, Inc., Santa Cruz, Calif.) and protein A-agarose (Gibco, Carlsbad, Calif.) was added. Beads were washed extensively and bound proteins separated by SDS-PAGE and analyzed by a PhosphorImager.

The test system of experiment [4] is hPER2 transcript oscillation in VSMC. In words: Serum shock and ribonuclease protection analysis of hPER2 mRNA in VSMC. The class given is cell-based, human. How it is done:
In these experiments, it was determined that oscillating clock gene expression could be induced by serum shock in VSMC as had been reported in Rat and 3T3 fibroblasts (Balsalobre, et al. (1998) Cell 93:929–937; Akashi, et al. (2000) Genes Dev. 14:645–649). Following addition of 50% serum for two hours, hPER2 mRNA peaks very rapidly at T4 (fours hours after serum shock) and enters a cyclical expression pattern, peaking at T24 and T48 (FIG. 5A). Adding tRA at T17 and leaving it in the culture for the remainder of the experiment, delayed the peak of hPER2 mRNA from T24 to T28. […] When tRA was added at T17 and removed at T19, the first hPER2 peak was again delayed to T28. However, the drop in hPER2 levels was followed by an increase, resulting in a second cycle which peaked at T52 (FIG. 5C). Thus, tRA phase delayed the hPER oscillation by four hours, which is consistent with the observation that ligand-bound RARα prevents CLOCK:BMAL1 heterodimer from activating transcription through its E-box. Removal of the ligand restored the ability of the CLOCK:BMAL1 heterodimer to induce hPER2 expression, but the phase of the cycle was delayed.
The coincidental circadian variability of catecholamines and blood pressure (Hossmann, et al. (1980) Cardiovasc. Res. 14:125–129) led to the investigation of whether catecholamines can phase-shift a core clock oscillator in VSMC. Norepinephrine and epinephrine (10 μM), were added at T16 and left in the culture until T18. This phase advanced the hPER2 mRNA peak to T20 instead of T24 (FIG. 5D).
VSMC (3500 cells/cm^2) were plated on 10 cm^2 plates 6 days before the experiment and were serum-starved for 48 hours after reaching confluence. Serum shock was carried out using 50% fetal bovine serum (Gibco, Carlsbad, Calif.) as previously described (Balsalobre, et al. (1998) Cell 93:929–937) and cells were harvested at the indicated time points and stored at −80° C. Total RNA was extracted from each sample using the RNAwiz™ reagent (Ambion, Austin, Tex.). […] RNA (5 μg) from each time point was hybridized for 16 hour with 8×10^4 cpm of the probe at 42° C. and digested with RNaseA/T1 (SequaGel System, National Diagnostics, Atlanta, Ga.), dried and analyzed by a PhosphorImager. The data was quantitated using ImageQuant version 1.2 software (Amersham Pharmacia Molecular Dynamics, Piscataway, N.J.) All results represent a mean of at least two independent experiments and are expressed as the ratio of the MOP4 or PER2 signal divided by the Actin signal at the same time point.

`CC1=C(/C=C/C(C)=C\C=C\C(C)=C\C(=O)O)C(C)(C)CCC1` [9cisRA, 9-cis-retinoic acid]: the “interaction of MOP4 and CLOCK with RXRα and RARα” value in experiment [1] is listed as “ligand-dependent manner”.
Take `CC1=C(/C=C/C(C)=C/C=C/C(C)=C/C(=O)O)C(C)(C)CCC1` [tRA, all-trans retinoic acid]: the “strength of the interaction between MOP4 and CLOCK with RARα” value in experiment [2] was “increase the strength of the interaction”. The “interaction of MOP4 and CLOCK with RXRα and RARα” value in experiment [1] is reported as “ligand-dependent manner”. In addition, in experiment [3], the “association of CLOCK and RARα (coimmunoprecipitation)” value is “increase in association”. Besides, the hPER2 transcript oscillation result in experiment [4] (addition at T17, FIG. 5B) is given as “delayed”; in experiment [4] (addition at T17 and removal at T19, FIG. 5C) it was “altered”. The “phase delay of the hPER oscillation” value in experiment [4] (tRA added at T17) is given as “four”. Besides, the “subsequent hPER2 levels” value in experiment [4] (tRA added at T17 and left in culture, FIG. 5B) is “dropped and did not peak again”.

The values are drawn from patent US7053121B2, “Compositions and methods for regulating circadian rhythms” (priority 2001, dated 2006).
